Data: ChEMBL document CHEMBL1201862, “PubChem BioAssay data set” (2004)
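Results reflect a 48-hour exposure of cells in 96-well plates to compound at five concentrations. GI50: concentration for 50% inhibition of growth.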 Active and inactive are the calls of the source. Cut-off read from the data, not from the text of the source: active = GI50 up to about 1.1 µM and inactive = higher.

Experiments:
Test in all cases: NCI tumour cell line growth inhibition, 48 h
M14 = system: M14
LOX IMVI = system: LOX IMVI
HOP-92 = system: HOP-92
CCRF-CEM = system: CCRF-CEM
CAKI-1 = system: CAKI-1
EKVX = system: EKVX
RPMI-8226 = system: RPMI-8226
HCT-116 = system: HCT-116
BT-549 = system: BT-549
HOP-62 = system: HOP-62
DU-145 = system: DU-145
UACC-62 = system: UACC-62
OVCAR-3 = system: OVCAR-3
COLO 205 = system: COLO 205
ACHN = system: ACHN
HCT-15 = system: HCT-15
T47D = system: T47D
HCC 2998 = system: HCC 2998
NCI-H460 = system: NCI-H460
SNB-75 = system: SNB-75

Row | Structure (SMILES) | GI50 (M14) | GI50 (LOX IMVI) | GI50 (HOP-92) | GI50 (CCRF-CEM) | GI50 (CAKI-1) | GI50 (EKVX) | GI50 (RPMI-8226) | GI50 (HCT-116) | GI50 (BT-549) | GI50 (HOP-62) | GI50 (DU-145) | GI50 (UACC-62) | GI50 (OVCAR-3) | GI50 (COLO 205) | GI50 (ACHN) | GI50 (HCT-15) [µM] | GI50 (T47D) | GI50 (HCC 2998) | GI50 (NCI-H460) | GI50 (SNB-75)
1 | COc1ccc2c3c1O[C@H]1[C@@H](O)CC[C@@]4(O)[C@@H](C2)N(C)CC[C@]314 | > 100 µM (inactive) | > 100 µM (inactive) | > 100 µM (inactive) | > 100 µM (inactive) | > 100 µM (inactive) | > 100 µM (inactive) | > 100 µM (inactive) | > 100 µM (inactive) | > 100 µM (inactive) | > 100 µM (inactive) | > 100 µM (inactive) | > 100 µM (inactive) | > 100 µM (inactive) | > 100 µM (inactive) | > 100 µM (inactive) | > 100 | > 100 µM (inactive) |  |  | 
2 | O=C(N/C(=C/c1ccc(Cl)cc1)c1nc2ccccc2c(=O)n1Nc1ccc([N+](=O)[O-])cc1[N+](=O)[O-])c1ccccc1 | > 100 µM (inactive) | > 100 µM (inactive) | > 100 µM (inactive) | > 100 µM (inactive) | > 100 µM (inactive) |  |  | > 100 µM (inactive) | > 100 µM (inactive) | > 100 µM (inactive) |  | > 100 µM (inactive) | > 100 µM (inactive) | > 100 µM (inactive) |  | > 100 | > 100 µM (inactive) | > 100 µM (inactive) | > 100 µM (inactive) | > 100 µM (inactive)
3 | Cc1ccc(S(=O)(=O)NC(=O)NC(CCC(N)=O)C(=O)O)cc1 (centres undefined) | > 100 µM (inactive) | > 100 µM (inactive) | 64.3 µM (inactive) | > 100 µM (inactive) |  |  | > 100 µM (inactive) | > 100 µM (inactive) | > 100 µM (inactive) | > 100 µM (inactive) | > 100 µM (inactive) | > 100 µM (inactive) |  | > 100 µM (inactive) | > 100 µM (inactive) | > 100 | > 100 µM (inactive) |  | > 100 µM (inactive) | > 100 µM (inactive)
4 | COc1ccc(N(c2ccc(C#N)cc2)c2ccc(C#N)cc2)cc1 | > 100 µM (inactive) | 69.8 µM (inactive) | > 100 µM (inactive) | 3.07 µM (inactive) | > 100 µM (inactive) | > 100 µM (inactive) |  | 93.5 µM (inactive) | > 100 µM (inactive) | > 100 µM (inactive) | > 100 µM (inactive) | > 100 µM (inactive) | 82.4 µM (inactive) | 31.9 µM (inactive) | > 100 µM (inactive) | 75.2 | 4.57 µM (inactive) |  | > 100 µM (inactive) | > 100 µM (inactive)
5 | Oc1c(N2CCOCC2)cc(-c2cc(N3CCOCC3)c(O)c3ccccc23)c2ccccc12 | 1.56 µM (inactive) | 1.77 µM (inactive) |  | 1.48 µM (inactive) | 2.69 µM (inactive) | 11.7 µM (inactive) |  | 2.16 µM (inactive) | 1.77 µM (inactive) | 1.69 µM (inactive) |  | 2.13 µM (inactive) | 2.47 µM (inactive) | 1.93 µM (inactive) | 2.93 µM (inactive) | 2.31 | 12.8 µM (inactive) | 2.04 µM (inactive) | 2.83 µM (inactive) | 2.26 µM (inactive)
6 | CC(C)CC1[C@@H](OCc2ccccc2)COS(=O)(=O)N1Cc1ccccc1 (some centres undefined) | > 100 µM (inactive) | > 100 µM (inactive) | > 100 µM (inactive) | > 100 µM (inactive) | > 100 µM (inactive) | > 100 µM (inactive) | 31.9 µM (inactive) | 53.5 µM (inactive) | > 100 µM (inactive) | > 100 µM (inactive) | > 100 µM (inactive) | > 100 µM (inactive) | > 100 µM (inactive) | > 100 µM (inactive) | > 100 µM (inactive) | 74.5 | > 100 µM (inactive) |  | > 100 µM (inactive) | 82 µM (inactive)
7 | CP(=O)(O)C(N)c1ccccc1 (centres undefined) | > 100 µM (inactive) | > 100 µM (inactive) | > 100 µM (inactive) | > 100 µM (inactive) | > 100 µM (inactive) | > 100 µM (inactive) | > 100 µM (inactive) | > 100 µM (inactive) | > 100 µM (inactive) | > 100 µM (inactive) | > 100 µM (inactive) | > 100 µM (inactive) | > 100 µM (inactive) | > 100 µM (inactive) | > 100 µM (inactive) | > 100 | > 100 µM (inactive) |  | > 100 µM (inactive) | 
8 | C/C=C/C=C\C=C/C(O)C(C)C(CCC(C)C1OC(=O)C=CC1C)OP(=O)(O)O (centres undefined) | 0.229 µM (active) | 0.314 µM (active) | 0.244 µM (active) | 0.243 µM (active) | 0.136 µM (active) | 0.447 µM (active) | 0.127 µM (active) | 0.251 µM (active) | 0.224 µM (active) | 0.303 µM (active) | 0.399 µM (active) | 0.319 µM (active) | 0.182 µM (active) | 0.268 µM (active) | 0.351 µM (active) | 0.445 | 0.386 µM (active) |  | 0.4 µM (active) | 0.986 µM (active)
9 | NC(=O)NC(=O)C1CCCCC1C(=O)O (centres undefined) | > 100 µM (inactive) | > 100 µM (inactive) | > 100 µM (inactive) | > 100 µM (inactive) | > 100 µM (inactive) | > 100 µM (inactive) | > 100 µM (inactive) | > 100 µM (inactive) | > 100 µM (inactive) | > 100 µM (inactive) | > 100 µM (inactive) | > 100 µM (inactive) | > 100 µM (inactive) | > 100 µM (inactive) | > 100 µM (inactive) | > 100 | > 100 µM (inactive) |  | > 100 µM (inactive) | > 100 µM (inactive)
10 | Cc1ccc(C(=O)C2C=C(c3ccc(C)cc3)SC3C=CCC32)cc1 (centres undefined) | 19.6 µM (inactive) | 18.4 µM (inactive) | 17.8 µM (inactive) | 13.6 µM (inactive) | 18.9 µM (inactive) | 34.8 µM (inactive) | 16.3 µM (inactive) | 13.5 µM (inactive) | 18.3 µM (inactive) | 20.3 µM (inactive) | 32.3 µM (inactive) | 17.9 µM (inactive) | 17 µM (inactive) | 22.1 µM (inactive) | 20.5 µM (inactive) | 21.6 | 20.5 µM (inactive) |  | 16.9 µM (inactive) | 
11 | C/C(=C\CO)CC/C=C(\C)CNc1ccc([N+](=O)[O-])cc1 | 62.1 µM (inactive) | 22.3 µM (inactive) |  |  | 80.5 µM (inactive) | 24.8 µM (inactive) |  | 93.5 µM (inactive) | 10.1 µM (inactive) | > 100 µM (inactive) | 50.4 µM (inactive) | 27.5 µM (inactive) | 17.4 µM (inactive) | 36.6 µM (inactive) | 80.4 µM (inactive) | 30.1 | 11.6 µM (inactive) |  | > 100 µM (inactive) | 0.0219 µM (active)
12 | C/C(=N\n1c(Cc2ccccc2)n[nH]c1=O)c1ccccc1 | > 100 µM (inactive) | > 100 µM (inactive) | 26.8 µM (inactive) | > 100 µM (inactive) | > 100 µM (inactive) | 94.4 µM (inactive) | > 100 µM (inactive) | > 100 µM (inactive) | > 100 µM (inactive) |  | > 100 µM (inactive) | > 100 µM (inactive) |  | > 100 µM (inactive) | > 100 µM (inactive) | > 100 | > 100 µM (inactive) |  |  | 
13 | O=C(CCCN1CCC(O)(c2ccc(Cl)cc2)CC1)c1ccc(F)cc1 [HALOPERIDOL] | 18.5 µM (inactive) | 18 µM (inactive) | 48.2 µM (inactive) | 41.4 µM (inactive) | 10.1 µM (inactive) | 82.4 µM (inactive) | 25.1 µM (inactive) | 15.1 µM (inactive) | 31 µM (inactive) | 36.1 µM (inactive) | 85.1 µM (inactive) | 2.31 µM (inactive) | 18.3 µM (inactive) | 18.6 µM (inactive) | 39.4 µM (inactive) | 16.6 | 37.5 µM (inactive) |  | 18.8 µM (inactive) | 23.8 µM (inactive)
14 | O=C(O)Cc1ccc(Nc2nc3ccccc3nc2C(=O)O)cc1 | > 100 µM (inactive) | > 100 µM (inactive) | > 100 µM (inactive) | > 100 µM (inactive) | > 100 µM (inactive) | > 100 µM (inactive) |  | > 100 µM (inactive) | > 100 µM (inactive) | > 100 µM (inactive) | > 100 µM (inactive) | > 100 µM (inactive) | > 100 µM (inactive) | > 100 µM (inactive) | > 100 µM (inactive) | > 100 | > 100 µM (inactive) |  | > 100 µM (inactive) | > 100 µM (inactive)
15 | CCCCC(=O)/C=c1/cc(C)[nH]c2cccc3cnn1c32 | > 100 µM (inactive) | > 100 µM (inactive) | 68.9 µM (inactive) | > 100 µM (inactive) | > 100 µM (inactive) | > 100 µM (inactive) | 61.9 µM (inactive) | > 100 µM (inactive) | > 100 µM (inactive) | > 100 µM (inactive) | > 100 µM (inactive) | > 100 µM (inactive) | > 100 µM (inactive) | > 100 µM (inactive) | > 100 µM (inactive) | > 100 | 16 µM (inactive) |  |  | 
16 | N#CC(C(=O)O)C(c1c(Cl)cccc1Cl)C(C#N)C(=O)O (centres undefined) | > 100 µM (inactive) | > 100 µM (inactive) | > 100 µM (inactive) |  | > 100 µM (inactive) | > 100 µM (inactive) | > 100 µM (inactive) | > 100 µM (inactive) | > 100 µM (inactive) | > 100 µM (inactive) | > 100 µM (inactive) | > 100 µM (inactive) | > 100 µM (inactive) | > 100 µM (inactive) | > 100 µM (inactive) | > 100 | > 100 µM (inactive) |  | > 100 µM (inactive) | 
